Where two headings read alike, the source gives them in different places.
Key:
Assay in all cases: MTT cell proliferation assay
Assay type in all cases: cell-based
Z138 cells = details: Homo sapiens, Z-138, Z138 cells, approximately 64-72 hours incubation
Method in brief: (§1)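 5,000-10,000 cells/well, overnight attach; 8 conc., 1 nM–30 μM; MTT ~4 h; formazan solubilized, OD 490 nm; % inhibition = (1−(ODo/OD))×100 vs neg. control; mostly duplicate, mean±SE.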

3T3 cells = details: Mus musculus, NIH3T3, approximately 64-72 hours incubation
Method in brief: as §1

MS751 cells = details: Homo sapiens, approximately 64-72 hours incubation
Method in brief: as §1

[1] = read-out: MTT Assay IC50, Z-138
[2] = MS751, MS751 cells, read-out: MTT Assay IC50, MS-751
[3] = MS751, MS751 cells, read-out: MTT Assay IC50 MS-751

Row | SMILES | IC50 (Z138 cells; [1]) [nM] | IC50 (3T3 cells; read-out: MTT Assay IC50, 3T3) [µM] | IC50 (MS751 cells; [2]) [nM] | IC50 (Z138 cells; read-out: MTT Assay IC50 Z-138) [nM] | IC50 (3T3 cells; read-out: MTT Assay IC50 3T3) [µM] | IC50 (MS751 cells; [3]) [nM] | IC50 (MS751 cells; MS751 cells, read-out: MTT Assay IC50 MS-751) [nM]
1 | Nc1ccc(/C=C/C(=O)NCc2cc3cc(-c4ccc(C(=O)N5CCC(F)(F)CC5)cc4)cc(-c4cccnc4)c3o2)cn1 [Compound 724, (E)-3-(6-aminopyridin-3-yl)-N-((5-(4-(4,4-difluoropiperidine-1-carbonyl)phenyl)-7-(pyridin-3-yl)benzofuran-2-yl)methyl)acrylamide] | < 100 | 0.1 to 5 | < 100 |  |  |  | 
2 | Nc1ccc(/C=C/C(=O)NCc2cc3cc(-c4ccc(C(=O)N5CCC[C@@H]5C(F)(F)F)cn4)cc(C(F)(F)F)c3o2)cn1 [Compound 624, (R,E)-3-(6-aminopyridin-3-yl)-N-((7-(trifluoromethyl)-5-(5-(2-(trifluoromethyl)pyrrolidine-1-carbonyl)pyridin-2-yl)benzofuran-2-yl)methyl)acrylamide] |  |  |  | 100 to 5000 | > 10 | 100 to 5000 | 
3 | C[C@H]1COCCN1C(=O)c1ccc(-c2cc(Cl)c3oc(CNC(=O)/C=C/c4ccc(N)nc4)cc3c2)cc1 [Compound 515, (S,E)-3-(6-aminopyridin-3-yl)-N-((7-chloro-5-(4-(3-methylmorpholine-4-carbonyl)phenyl)benzofuran-2-yl)methyl)acrylamide] |  |  |  | 100 to 5000 | > 10 | 100 to 5000 | 
4 | CC1(C)CN(C(=O)c2ccc(-c3cc(C(F)(F)F)c4oc(CNC(=O)/C=C/c5ccc(N)nc5)cc4c3)cc2)C1 [Compound 526, (E)-3-(6-aminopyridin-3-yl)-N-((5-(4-(3,3-dimethylazetidine-1-carbonyl)phenyl)-7-(trifluoromethyl)benzofuran-2-yl)methyl)acrylamide] |  |  |  | 100 to 5000 | > 10 | 100 to 5000 | 
5 | Nc1ccc(/C=C/C(=O)NCc2cc3cc(-c4ccc(C(=O)N5CC6CCC(C5)O6)cn4)cc(C(F)(F)F)c3o2)cn1 [Compound 632, (E)-N-((5-(5-(8-oxa-3-azabicyclo[3.2.1]octane-3-carbonyl)pyridin-2-yl)-7-(trifluoromethyl)benzofuran-2-yl)methyl)-3-(6-aminopyridin-3-yl)acrylamide] |  |  |  | 100 to 5000 | > 10 | 100 to 5000 | 
6 | Nc1ccc(/C=C/C(=O)NCc2cc3cc(-c4ccc(C(=O)N5CCC(F)(F)CC5)cc4F)cc(-c4ccc(C(F)(F)F)cc4)c3o2)cn1 [Compound 749, (E)-3-(6-aminopyridin-3-yl)-N-((5-(4-(4,4-difluoropiperidine-1-carbonyl)-2-fluorophenyl)-7-(4-(trifluoromethyl)phenyl)benzofuran-2-yl)methyl)acrylamide] | 100 to 5000 | > 10 | > 10000 |  |  |  | 
7 | O=C(/C=C/c1cccnc1)NCc1cc2cc(-c3ccc(C(=O)N4CCC(F)(F)CC4)cc3)cc(-c3ccncc3)c2o1 [Compound 723, (E)-N-((5-(4-(4,4-difluoropiperidine-1-carbonyl)phenyl)-7-(pyridin-4-yl)benzofuran-2-yl)methyl)-3-(pyridin-3-yl)acrylamide] | < 100 | < 0.1 | < 100 |  |  |  | 
8 | O=C(/C=C/c1cccnc1)NCc1cc2cc(-c3ccc(C(=O)N4CCC(F)(F)CC4)cc3)cc(C(F)(F)F)c2o1 [Compound 682, (E)-N-((5-(4-(4,4-difluoropiperidine-1-carbonyl)phenyl)-7-(trifluoromethyl)benzofuran-2-yl)methyl)-3-(pyridin-3-yl)acrylamide] | 100 to 5000 | 0.1 to 5 | 100 to 5000 |  |  |  | 
9 | Nc1ccc(/C=C/C(=O)NCc2cc3cc(-c4ccc(C(=O)N5CC6(CCO6)C5)cn4)cc(C(F)(F)F)c3o2)cn1 [Compound 634, (E)-N-((5-(5-(1-oxa-6-azaspiro[3.3]heptane-6-carbonyl)pyridin-2-yl)-7-(trifluoromethyl)benzofuran-2-yl)methyl)-3-(6-aminopyridin-3-yl)acrylamide] |  |  |  | 100 to 5000 | > 10 | 100 to 5000 | 
10 | Nc1ccc(/C=C/C(=O)NCc2cc3cc(-c4ccc(C(=O)N5CC[C@H](Cl)C5)cn4)cc(C(F)(F)F)c3o2)cn1 [Compound 618, (S,E)-3-(6-aminopyridin-3-yl)-N-((5-(5-(3-chloropyrrolidine-1-carbonyl)pyridin-2-yl)-7-(trifluoromethyl)benzofuran-2-yl)methyl)acrylamide] |  |  |  | 100 to 5000 | > 10 | 100 to 5000 | 
11 | CC1(F)CCN(C(=O)c2ccc(-c3cc(C(F)(F)F)c4oc(CNC(=O)/C=C/c5ccc(N)nc5)cc4c3)cc2)C1 (single isomer, unassigned) [Compound 715, (E)-3-(6-aminopyridin-3-yl)-N-((5-(4-(3-fluoro-3-methylpyrrolidine-1-carbonyl)phenyl)-7-(trifluoromethyl)benzofuran-2-yl)methyl)acrylamide] | 100 to 5000 | > 10 | 100 to 5000 |  |  |  | 
12 | Nc1ccc(/C=C/C(=O)NCc2cc3cc(-c4ccc(C(=O)N5CCC(F)(F)CC5)cc4)cc(-c4ccc(Cl)cc4)c3o2)cn1 [Compound 742, (E)-3-(6-aminopyridin-3-yl)-N-((7-(4-chlorophenyl)-5-(4-(4,4-difluoropiperidine-1-carbonyl)phenyl)benzofuran-2-yl)methyl)acrylamide] | 100 to 5000 | > 10 | 100 to 5000 |  |  |  | 
13 | Nc1ccc(/C=C/C(=O)NCc2cc3cc(-c4ccc(C(=O)N5CCC(F)(F)CC5)cc4)cc(C(F)(F)F)c3o2)cn1 [Compound 566, (E)-3-(6-aminopyridin-3-yl)-N-((5-(4-(4,4-difluoropiperidine-1-carbonyl)phenyl)-7-(trifluoromethyl)benzofuran-2-yl)methyl)acrylamide] |  |  |  | 100 to 5000 | > 10 | 100 to 5000 | 
14 | CC(C)(O)c1ccc(-c2cc(Cl)c3oc(CNC(=O)/C=C/c4ccc(N)nc4)cc3c2)s1 [Compound 650, (E)-3-(6-aminopyridin-3-yl)-N-((7-chloro-5-(5-(2-hydroxypropan-2-yl)thiophen-2-yl)benzofuran-2-yl)methyl)acrylamide] |  |  |  | 100 to 5000 | > 10 | 100 to 5000 | 
15 | Nc1ccc(/C=C/C(=O)NCc2cc3cc(-c4ccc(C(=O)N5CCC(F)(F)CC5)cc4)cc(-c4cc(F)cc(F)c4)c3o2)cn1 [Compound 734, (E)-3-(6-aminopyridin-3-yl)-N-((7-(3,5-difluorophenyl)-5-(4-(4,4-difluoropiperidine-1-carbonyl)phenyl)benzofuran-2-yl)methyl)acrylamide] | < 100 | 0.1 to 5 | < 100 |  |  |  | 
16 | Nc1ccc(/C=C/C(=O)NCc2cc3cc(-c4ccc(C(=S)N5CCC(F)(F)CC5)cn4)cc(-c4ccc(F)cc4F)c3o2)cn1 [Compound 708, (E)-3-(6-aminopyridin-3-yl)-N-((7-(2,4-difluorophenyl)-5-(5-(4,4-difluoropiperidine-1-carbonothioyl)pyridin-2-yl)benzofuran-2-yl)methyl)acrylamide] | < 100 | 0.1 to 5 | < 100 |  |  |  | 
17 | Nc1ccc(/C=C/C(=O)NCc2cc3cc(-c4ccc(C(=O)N5CCC(F)(F)CC5)cn4)cc(-c4cc5ccccc5o4)c3o2)cn1 [Compound 668, (E)-3-(6-aminopyridin-3-yl)-N-((5′-(5-(4,4-difluoropiperidine-1-carbonyl)pyridin-2-yl)-2,7′-bibenzofuran-2′-yl)methyl)acrylamide] | < 100 | 0.1 to 5 | < 100 |  |  |  | 
18 | CC1(O)CCN(C(=O)c2ccc(-c3cc(C(F)(F)F)c4oc(CNC(=O)/C=C/c5ccc(N)nc5)cc4c3)nc2)C1 (stereo not drawn) [Compound 627, (E)-3-(6-aminopyridin-3-yl)-N-((5-(5-(3-hydroxy-3-methylpyrrolidine-1-carbonyl)pyridin-2-yl)-7-(trifluoromethyl)benzofuran-2-yl)methyl)acrylamide] |  |  |  | < 100 | > 10 | < 100 | 
19 | Nc1ccc(/C=C/C(=O)NCc2cc3cc(-c4ccc(C(=O)NNc5ccccn5)cc4)cc(C(F)(F)F)c3o2)cn1 [Compound 518, (E)-3-(6-aminopyridin-3-yl)-N-((5-(4-(2-(pyridin-2-yl)hydrazinecarbonyl)phenyl)-7-(trifluoromethyl)benzofuran-2-yl)methyl)acrylamide] |  |  |  | 100 to 5000 | > 10 |  | 100 to 5000
20 | O=C(/C=C/c1cccnc1)NCc1cc2cc(-c3ccc(C(=O)N4CCOCC4)cc3)cc(Cl)c2o1 [Compound 538, (E)-N-((7-chloro-5-(4-(morpholine-4-carbonyl)phenyl)benzofuran-2-yl)methyl)-3-(pyridin-3-yl)acrylamide] |  |  |  | 100 to 5000 | 0.1 to 5 | 100 to 5000 | 
21 | CS(=O)(=O)c1ccc(-c2cc(-c3ccc(F)cc3)c3oc(CNC(=O)/C=C/c4ccc(N)nc4)cc3c2)cc1 [Compound 693, (E)-3-(6-aminopyridin-3-yl)-N-((7-(4-fluorophenyl)-5-(4-(methylsulfonyl)phenyl)benzofuran-2-yl)methyl)acrylamide] | < 100 | 0.1 to 5 | < 100 |  |  |  | 
22 | Nc1ccc(/C=C/C(=O)NCc2cc3cc(-c4ccc(C(=O)N5CCC(F)(F)CC5)cn4)cc(-c4ccncc4)c3o2)cn1 [Compound 666, (E)-3-(6-aminopyridin-3-yl)-N-((5-(5-(4,4-difluoropiperidine-1-carbonyl)pyridin-2-yl)-7-(pyridin-4-yl)benzofuran-2-yl)methyl)acrylamide] | < 100 | 0.1 to 5 | < 100 |  |  |  | 
